Tests used:
[1] = test system: B. atrophaeus subspecies globigii spores; type: cell-based, Bacillus atrophaeus subspecies globigii; settings: 0.5 M in water
Experimental: Dry-prepared spores of non-pathogenic B. atrophaeus subspecies globigii (B. globigii or Bg) were prepared at the Army's Dugway Proving Ground to mimic a bio-weapon, and they are used for bio-weapons studies, including the following experiments. The assay for decontamination experiments was performed with 3-4 replicates and many experiments were reproduced numerous times. The assay included the steps of (1) suspending Bg spores in the appropriate solvent (water or ethanol) at a concentration of 2 mg spores/ml (approximately 2×10^8 spores/ml) with starting volume of over 1 ml of spores at 2 mg/ml; (2) removing 3 or 4 spore aliquots of 50 ul per aliquot with each aliquot serially diluted in 1x PBS and plated on Luria-Bertani (LB) or Tryptic Soy (TSA) agar plates (this is a control step that gave the spore titer or colony-forming units (CFUs) at Time=0 minutes (T0)); (3) placing the appropriate decontamination solution (2x concentration) aliquoted into each of 3 or 4 eppendorf tubes with 200 ul per tube and then 200 ul of spores were added and mixed to give a final concentration of 1x decontamination solution and 1 mg spores/ml; (4) the spores in decontamination solution were then mixed and incubated for specific time periods and temperatures. A typical incubation was in a room temperature (25° C.) water bath for 30 (or 60) minutes (no agitation was performed during the incubation period in order to mimic real world situations); (5) aliquots of spores from the 3 or 4 replicates were removed after 30 (or 60) minutes with the aliquots serially diluted in 1x PBS and plated on LB or TSA agar plates which gave a CFU at Time=30 minutes (T30) (the titer of live spores after the decontamination test); (6) after removing the aliquots at the 30-minute time point, some test samples were then immediately incubated in a 70° C. water bath for another 30 minutes, the samples were then serially diluted and plated on to LB agar plates to determine the titer after the 70° C. incubation.

[2] = test system: Bacillus atrophaeus subspecies globigii spores; assay: Assay to quantify spore kills, dry-prepared Bg spores (section 2); type: cell-based; settings: 0.5 M, 15 minutes at 25° C., FIG. 4
Bacillus cereus spores = assay: Assay to quantify spore kills, wet-prepared Bc spores (section 2); type: cell-based, B. cereus RSVF1, ATCC 4342; settings: FIG. 5
[3] = 60 minutes at 25° C., ten out of the thirteen experiments
[4] = additional 30 minutes at 70° C., pH-neutralized to pH 7-8, all 11 experiments
[5] = 0.5 M in 50%, 75% and 90% ethanol, 15 minutes at 25° C.

## [Cl][Cu][Cl] [Cu^+2, copper chloride]
[1]; [3]
  log spore kill: > 1 log
  spore kills: greater than 92%
[1]; [4]
  kill of spores: 100%
  logs of kill: > 7 logs
[2]; in 50%, 75% and 90% ethanol
  activity against Bg spores: strongest activity
Bacillus cereus spores; [5]
  activity against Bc spores: strong activity

## O.O.[Ca+2].[Cl-].[Cl-] [Ca^+2, CaCl2-2H2O]
[2]; regardless of the solvent (water, 25-90% ethanol)
  effect on Bg spores: no affect
Bacillus cereus spores; 0.5 M in water, 25%, 50%, 75% or 90% ethanol, 15 minutes at 25° C.
  effect on Bc spores: no affect

## [Cl-].[Cl-].[Zn+2] [Zn^+2, ZnCl2]
[2]; in 50% ethanol
  CFU reduction: greater than two logs
Bacillus cereus spores; 0.5 M in 50% and 75% ethanol, 15 minutes at 25° C.
  activity against Bc spores: slight activity

## O.O.O.O.O.O.[Cl-].[Cl-].[Cl-].[Fe+3] [Fe^+3, FeCl3·6H2O]
[2]; in water and at any ethanol concentration
  CFU reduction: greater than three logs
Bacillus cereus spores; [5]
  CFU reduction (logs): greater than three logs
  CFU reduction (percent): > 99.9%
Bacillus cereus spores; 0.5 M in water, within 15 minutes
  CFU reduced relative to the control: less than half a log
